Assay results from patent US20170020867A1 (priority 2015, published 2017).
Entries after “also recorded” stand apart in the source; their conditions may differ.

How the values were obtained:
[1] = tested on: C Reactive Protein (CRP) level; test: Phase IIa clinical trial: C Reactive Protein (CRP) level; type: in vivo, human
[2] = tested on: patients with moderate to severe active Crohn's disease; test: Phase IIa clinical trial: corticosteroids decrease; type: in vivo, human; conditions: among patients who maintained corticosteroids during the study
Excerpt: Fifteen patients were on corticosteroids prior to study entry.

[3] = tested on: patients with moderate to severe active Crohn's disease; conditions: human, in vivo
[4] = tested on: human cord blood mast cells; conditions: cited from earlier work
[5] = tested on: patients with moderate to severe active Crohn's disease; test: Phase IIa clinical trial: safety
[6] = tested on: patients with moderate to severe active Crohn's disease; test: Phase IIa clinical trial: Crohn's Disease Activity Index (CDAI)
[7] = week 8, OC dataset, ITT population, All
[8] = week 4, Observed Cases, ITT population
[9] = week 8, Observed Cases, ITT population
[10] = week 8, Observed Cases, ITT population, listed as masitinib
[11] = week 8, patients with CDAI >350 at baseline, ITT population
[12] = week 8, patients with CDAI >350 at baseline, ITT population, listed as masitinib

In the case of `Cc1ccc(NC(=O)c2ccc(CN3CCN(C)CC3)cc2)cc1Nc1nc(-c2cccnc2)cs1` [Masitinib, 4-(4-methylpiperazin-1-ylmethyl)-N-[4-methyl-3-(4-pyridin-3ylthiazol-2-ylamino)phenyl]benzamide], the “CRP level change from baseline” value ([1]; patients previously treated with anti-TNF) is reported as −30%, the “CRP absolute change, Median” value [1, 7] is reported as -19.0 mg/L and the “CRP mean absolute change ± SD” value [1, 7] is reported as -19.7 ± 21.8 mg/L. The “patients whose corticosteroid dose was decreased during study” value [2] was 50%, the death [3] was “no death” and the “patients with a serious adverse event” value ([3]; 8 weeks) was 44%. For the same compound, the FcεRI-mediated degranulation [4] was “inhibition of FcεRI-mediated degranulation”, the tolerability ([5]; 8 weeks of observation, 4.5 or 6 mg/kg/day oral in two daily intakes) was “well tolerated; also recorded: well-tolerated” and the “patients who experienced at least one adverse event (AE)” value ([5]; during the treatment) was 94%. For the same compound, the “adverse event abdominal pain, patients” value ([5]; human, in vivo) was 22%, the “adverse event asthenia, patients” value ([5]; human, in vivo) was 33% and the “adverse event nausea, patients” value ([5]; human, in vivo) was 28%. The “adverse event vomiting, patients” value ([5]; human, in vivo) was 33%, the “mean CDAI decrease” value ([6]; 4 weeks after the initiation of treatment) was 80 units and the “additional remission, number of patients” value ([6]; after the first 8-week period) was “one”. For the same compound, the “Complete remission, number of patients” value ([6]; during the first 8-week period) was “two”, the “Complete remission, patients” value ([6]; patient presenting with CDAI>350 at baseline) was 10% and the “CDAI enhanced response (at least 100 pts decrease), patients” value ([6]; week 4, LOCF, ITT population) was 5 (31.3%). The “CDAI response (at least 70 pts decrease), patients” value ([6]; week 4, LOCF, ITT population) was 8 (50.0%), the “CDAI enhanced response (at least 100 pts decrease), patients” value [6, 8] was 5 (31.3%) and the “CDAI response (at least 70 pts decrease), patients” value [6, 8] was 8 (50.0%). For the same compound, the “CDAI response (at least 70 pts decrease), patients” value ([6]; week 4, Observed Cases, ITT population, listed as masitinib) was 50%, the “CDAI enhanced response (at least 100 pts decrease), patients” value ([6]; week 8, LOCF, ITT population) was 5 (31.3%) and the “CDAI response (at least 70 pts decrease), patients” value ([6]; week 8, LOCF, ITT population) was 7 (43.8%). The “Mean CDAI absolute change from baseline (SD)” value ([6]; week 8, LOCF, ITT population) was −59.9 (112.2), the “Median CDAI absolute change from baseline” value (from here on “Median CDAI absolute change”) ([6]; week 8, LOCF, ITT population) was −64.5 and the “Mean CDAI absolute change from baseline (SD)” value ([6]; week 8, OC, ITT population) was −86.0 (128.9). For the same compound, the “Median CDAI absolute change” value ([6]; week 8, OC, ITT population) was −101.0, the “Mean CDAI absolute change from baseline (SD)” value ([6]; week 8, OC, ITT population, listed as masitinib) was −86 and the “CDAI enhanced response (at least 100 pts decrease), patients” value ([6]; week 8, OC, ITT, L1) was “(100.0%)”. The “Mean CDAI absolute change from baseline” value ([6]; week 8, OC, ITT, L1) was −153.0, the “Median CDAI absolute change” value ([6]; week 8, OC, ITT, L1) was −153.0 and the “CDAI enhanced response (at least 100 pts decrease), patients” value ([6]; week 8, OC, ITT, L1, listed as masitinib) was 100%. For the same compound, the “CDAI enhanced response (at least 100 pts decrease), patients” value ([6]; week 8, OC, ITT, L2) was “(0.0%)”, the “Mean CDAI absolute change from baseline” value ([6]; week 8, OC, ITT, L2) was −50.0 and the “Median CDAI absolute change” value ([6]; week 8, OC, ITT, L2) was −50.0. The “CDAI enhanced response (at least 100 pts decrease), patients” value ([6]; week 8, OC, ITT, L3) was “(57.1%)”, the “Mean CDAI absolute change from baseline” value ([6]; week 8, OC, ITT, L3) was −86.7 and the “Median CDAI absolute change” value ([6]; week 8, OC, ITT, L3) was −103.0. The “CDAI enhanced response (at least 100 pts decrease), patients” value ([6]; week 8, OC, ITT, L3, listed as masitinib) was 57%, the “CDAI response (at least 70 pts decrease), patients” value ([6]; week 8, OC, ITT, patients naive or previously treated with corticosteroids (L1)) was “(100.0%)” and the “CDAI response (at least 70 pts decrease), patients” value ([6]; week 8, OC, ITT, patients previously treated with azathioprine (Immurel) or immunotherapy (L2)) was “(50.0%)”. For the same compound, the “CDAI response (at least 70 pts decrease), patients” value ([6]; week 8, OC, ITT, patients previously treated with biological agent (L3)) was “(71.4%)”, the “CDAI response (at least 70 pts decrease), patients” value ([6]; week 8, OC, ITT, patients previously treated with biological agent (L3), listed as masitinib) was 71% and the “CDAI enhanced response (at least 100 pts decrease), patients” value [6, 9] was 5 (50.0%). For the same compound, the “CDAI response (at least 70 pts decrease), patients” value [6, 9] was 7 (70.0%), the “improvement of mean disease activity” value [6, 9] was 23% and the “CDAI enhanced response (at least 100 pts decrease), patients” value [6, 10] was 50%. The “CDAI response (at least 70 pts decrease), patients” value [6, 10] was 70%, the “CDAI absolute change from baseline Mean (SD)” value [6, 11] was −152.3 (78.5) and the “CDAI absolute change from baseline, Median” value [6, 11] was −116.5. For the same compound, the “CDAI enhanced response (at least 100 pts decrease), patients” value [6, 11] was 4 (66.7%), the “CDAI response (at least 70 pts decrease), patients” value [6, 11] was 6 (100.0%) and the “CDAI enhanced response (at least 100 pts decrease), patients” value [6, 12] was 67%. For the same compound, the “CDAI response (at least 70 pts decrease), patients” value [6, 12] was 100%.
